In ChEMBL document CHEMBL2424549, “Design, synthesis and biological evaluation of 4-(1-(4(sulphanilamide)phenyl)-3-(methyl)-1H-pyrazol-5-yl)dine urea and N-acyl derivatives as a soluble epoxide hydrolase inhibitors” (Med Chem Res, 2013) one finds IC50 and inhibition data, which are given here for 33 compounds.

The target in the first experiment is T1, Bifunctional epoxide hydrolase 2 (Homo sapiens, UniProt P34913).
T1 sequence (P34913 whole entry): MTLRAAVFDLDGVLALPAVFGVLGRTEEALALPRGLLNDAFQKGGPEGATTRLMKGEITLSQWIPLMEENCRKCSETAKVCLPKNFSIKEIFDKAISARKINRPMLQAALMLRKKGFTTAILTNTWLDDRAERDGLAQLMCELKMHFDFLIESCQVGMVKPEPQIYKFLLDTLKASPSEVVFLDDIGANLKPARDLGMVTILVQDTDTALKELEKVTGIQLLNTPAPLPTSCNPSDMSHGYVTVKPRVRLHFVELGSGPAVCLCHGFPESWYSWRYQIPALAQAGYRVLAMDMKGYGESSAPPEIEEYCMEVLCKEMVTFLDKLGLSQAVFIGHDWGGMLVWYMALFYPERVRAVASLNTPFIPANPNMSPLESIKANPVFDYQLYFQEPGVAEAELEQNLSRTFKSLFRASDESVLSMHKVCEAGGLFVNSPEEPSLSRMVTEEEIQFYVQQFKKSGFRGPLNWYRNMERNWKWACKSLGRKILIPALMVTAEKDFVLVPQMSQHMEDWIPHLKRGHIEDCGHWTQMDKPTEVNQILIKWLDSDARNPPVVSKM
The experiment in a line: Inhibition of human recombinant soluble epoxide hydrolase using (3-phenyl-oxiranyl)-acetic acid cyano-(6-methoxy-naphtalen-2-yl)-methyl ester as substrate incubated for 15 mins prior to substrate addition by fluorescence assay.
Broadly, the IC50 is the concentration that gives 50% inhibition. Turning to `Cc1ccc(NC(=O)N2CCC(c3cc(C)nn3-c3ccc(S(N)(=O)=O)cc3)CC2)cc1`, the IC50 was 0.224 µM.

Regarding `Cc1cc(C2CCN(C(=O)Nc3ccccc3)CC2)n(-c2ccc(S(N)(=O)=O)cc2)n1`, the IC50 was 16.7 µM.

Take `Cc1cc(C2CCN(C(=O)NC(C)C)CC2)n(-c2ccc(S(N)(=O)=O)cc2)n1`: the IC50 stood at 22.3 µM.

In the case of `Cc1cc(C2CCN(C(=O)NC3CCCCC3)CC2)n(-c2ccc(S(N)(=O)=O)cc2)n1`, the IC50 worked out at 0.275 µM.

On to `Cc1cc(C2CCN(C(=O)NC(C)C)CC2)n(-c2ccc(S(C)(=O)=O)cc2)n1`, for which the IC50 is 13.6 µM.

Take `Cc1cc(C2CCN(C(=O)NC3CCCCC3)CC2)n(-c2ccc(S(C)(=O)=O)cc2)n1`: the half-maximal inhibitory concentration (IC50) was 3.47 µM.

Take `CCCCNC(=O)N1CCC(c2cc(C)nn2-c2ccc(S(N)(=O)=O)cc2)CC1`: the IC50 came to 10.1 µM.

As for `Cc1cc(C2CCN(C(=O)Nc3ccccc3)CC2)n(-c2ccc(S(C)(=O)=O)cc2)n1`, the IC50 was determined as 0.22 µM.

For the compound `CCCCNC(=O)N1CCC(c2cc(C)nn2-c2ccc(S(C)(=O)=O)cc2)CC1`, the IC50 worked out at 0.269 µM.

Another experiment deals with T2, Bifunctional epoxide hydrolase 2 (Homo sapiens) (UniProt P34913).
T2 sequence (whole entry): T1 sequence (P34913 whole entry)
The experiment in a line: Inhibition of human recombinant soluble epoxide hydrolase using (3-phenyl-oxiranyl)-acetic acid cyano-(6-methoxy-naphtalen-2-yl)-methyl ester as substrate at 100 uM incubated for 15 mins prior to substrate addition by fluorescence assay.
As a reminder, the inhibition is the relative decrease from the control value, in per cent. Take `Cc1ccc(NC(=O)N2CCC(c3cc(C)nn3-c3ccc(S(N)(=O)=O)cc3)CC2)cc1`: the inhibition came out at 105%.

As to `CCCC(=O)N1CCC(c2cc(C)nn2-c2ccc(S(C)(=O)=O)cc2)CC1`, the inhibition amounted to 54%.

Regarding `Cc1cc(C2CCN(C(=O)c3ccc(Cl)cc3)CC2)n(-c2ccc(S(C)(=O)=O)cc2)n1`, the inhibition was 54%.

Consider `Cc1cc(C2CCN(C(=O)Nc3ccccc3)CC2)n(-c2ccc(S(N)(=O)=O)cc2)n1`, for which the inhibition was determined as 92.7%.

Turning to `CCc1ccccc1NC(=O)N1CCC(c2cc(C)nn2-c2ccc(S(C)(=O)=O)cc2)CC1`, the inhibition was determined as 54%.

With `CCCNC(=O)N1CCC(c2cc(C)nn2-c2ccc(S(N)(=O)=O)cc2)CC1`, the inhibition worked out at 68.6%.

Consider `Cc1cc(C2CCN(C(=O)NC(C)C)CC2)n(-c2ccc(S(N)(=O)=O)cc2)n1`, for which the inhibition turned out to be 105%.

For the compound `Cc1cc(C2CCN(C(=O)NC3CCCCC3)CC2)n(-c2ccc(S(N)(=O)=O)cc2)n1`, the inhibition worked out at 99%.

As for `COc1ccc(C(=O)N2CCC(c3cc(C)nn3-c3ccc(S(N)(=O)=O)cc3)CC2)cc1`, the inhibition was found to be 32.9%.

For `Cc1cc(C2CCN(C(=O)c3ccc([N+](=O)[O-])cc3)CC2)n(-c2ccc(S(C)(=O)=O)cc2)n1`, the inhibition amounted to 54%.

Turning to `Cc1cc(C2CCN(C(=O)Nc3ccc(Cl)cc3)CC2)n(-c2ccc(S(C)(=O)=O)cc2)n1`, the inhibition was determined as 54%.

Take `Cc1cc(C2CCN(C(=O)c3ccc([N+](=O)[O-])cc3)CC2)n(-c2ccc(S(N)(=O)=O)cc2)n1`: the inhibition worked out at 0%.

Consider `Cc1cc(C2CCN(C(=O)c3ccc(Cl)cc3)CC2)n(-c2ccc(S(N)(=O)=O)cc2)n1`, for which the inhibition turned out to be 32.5%.

As to `Cc1cc(C2CCN(C(=O)NC(C)C)CC2)n(-c2ccc(S(C)(=O)=O)cc2)n1`, the inhibition is 45.4%.

As for `CCNC(=O)N1CCC(c2cc(C)nn2-c2ccc(S(N)(=O)=O)cc2)CC1`, the inhibition was 23.3%.

`Cc1cc(C2CCN(C(=O)NCCc3ccccc3)CC2)n(-c2ccc(S(C)(=O)=O)cc2)n1`: the inhibition was 54%.

In the case of `Cc1cc(C2CCN(C(=O)NC3CCCCC3)CC2)n(-c2ccc(S(C)(=O)=O)cc2)n1`, the inhibition is 114%.

Consider `Cc1cc(C2CCN(C(=O)Nc3ccccc3Cl)CC2)n(-c2ccc(S(N)(=O)=O)cc2)n1`, for which the inhibition stood at 54%.

In the case of `CCNC(=O)N1CCC(c2cc(C)nn2-c2ccc(S(C)(=O)=O)cc2)CC1`, the inhibition worked out at 54%.

For the compound `Cc1ccc(NC(=O)N2CCC(c3cc(C)nn3-c3ccc(S(C)(=O)=O)cc3)CC2)cc1`, the inhibition was 54%.

With `Cc1ccc(C(=O)N2CCC(c3cc(C)nn3-c3ccc(S(C)(=O)=O)cc3)CC2)cc1`, the inhibition worked out at 42.1%.

In the case of `CCCCNC(=O)N1CCC(c2cc(C)nn2-c2ccc(S(N)(=O)=O)cc2)CC1`, the inhibition was found to be 82%.

For the compound `Cc1cc(C2CCN(C(=O)NCc3ccccc3)CC2)n(-c2ccc(S(C)(=O)=O)cc2)n1`, the inhibition amounted to 94.2%.

For `Cc1cc(C2CCN(C(=O)NCc3ccccc3)CC2)n(-c2ccc(S(N)(=O)=O)cc2)n1`, the inhibition turned out to be 69.2%.

For the compound `CCCNC(=O)N1CCC(c2cc(C)nn2-c2ccc(S(C)(=O)=O)cc2)CC1`, the inhibition was 54%.

Take `Cc1cc(C2CCN(C(=O)c3ccccc3)CC2)n(-c2ccc(S(C)(=O)=O)cc2)n1`: the inhibition worked out at 54%.

With `COc1ccc(C(=O)N2CCC(c3cc(C)nn3-c3ccc(S(C)(=O)=O)cc3)CC2)cc1`, the inhibition was 15.2%.

In the case of `CCCC(=O)N1CCC(c2cc(C)nn2-c2ccc(S(N)(=O)=O)cc2)CC1`, the inhibition is 68.7%.

Consider `Cc1cc(C2CCN(C(=O)Nc3ccccc3)CC2)n(-c2ccc(S(C)(=O)=O)cc2)n1`, for which the inhibition came to 89.9%.

As to `Cc1cc(C2CCN(C(=O)c3ccccc3)CC2)n(-c2ccc(S(N)(=O)=O)cc2)n1`, the inhibition was found to be 57.2%.

Consider `CCCCNC(=O)N1CCC(c2cc(C)nn2-c2ccc(S(C)(=O)=O)cc2)CC1`, for which the inhibition turned out to be 99.5%.

`Cc1cc(C2CCN(C(=O)Nc3ccccc3Cl)CC2)n(-c2ccc(S(C)(=O)=O)cc2)n1`: the inhibition is 54%.

On to `Cc1ccc(C(=O)N2CCC(c3cc(C)nn3-c3ccc(S(N)(=O)=O)cc3)CC2)cc1`, for which the inhibition worked out at 0%.
